{
  "source": "ChEMBL document CHEMBL1154232",
  "about": "“Cerebrosides of the halotolerant fungus Alternaria raphani isolated from a sea salt field” (J Nat Prod, 2009)",
  "key": {"Escherichia coli": {"test_system": "Escherichia coli", "assay": "Antibacterial activity against Escherichia coli after 24 hrs by agar dilution method", "assay_type": "functional"}, "Bacillus subtilis": {"test_system": "Bacillus subtilis", "assay": "Antibacterial activity against Bacillus subtilis after 24 hrs by agar dilution method", "assay_type": "functional"}, "Candida albicans": {"test_system": "Candida albicans", "assay": "Antifungal activity against Candida albicans after 24 hrs by agar dilution method", "assay_type": "functional"}, "P388": {"test_system": "P388", "assay": "Cytotoxicity against mouse P388 cells after 24 hrs by SRB assay", "assay_type": "functional, cell-based", "conditions": "P388, 24 h"}, "HL-60": {"test_system": "HL-60", "assay": "Cytotoxicity against human HL60 cells after 24 hrs by SRB assay", "assay_type": "functional, cell-based", "conditions": "HL-60, 24 h"}, "A549": {"test_system": "A549", "assay": "Cytotoxicity against human A549 cells after 72 hrs by MTT assay", "assay_type": "functional, cell-based", "conditions": "A549, 72 h"}, "Bel-7402": {"test_system": "Bel-7402", "assay": "Cytotoxicity against human Bel7402 cells after 72 hrs by MTT assay", "assay_type": "functional, cell-based", "conditions": "Bel-7402, 72 h"}, "[1]": {"test_system": "Radical scavenging activity", "assay": "Antioxidant activity assessed as DPPH free radical scavenging activity after 30 mins", "assay_type": "functional"}},
  "data": [
    {"smiles": "C=C(CCCCCCCCC)C(=O)CC/C=C/[C@@H](O)[C@H](CO[C@@H]1O[C@H](CO)[C@@H](O)[C@H](O)[C@H]1O)NC(=O)[C@H](O)/C=C/CCCCCCCCCCCCCC", "note": "[ALTERNAROSIDE A]", "values": [
      {"measurement": "MIC", "setting": "Escherichia coli", "result": 130, "unit": "µM"},
      {"measurement": "MIC", "setting": "Bacillus subtilis", "result": 130, "unit": "µM"},
      {"measurement": "MIC", "setting": "Candida albicans", "result": 260, "unit": "µM"},
      {"measurement": "IC50", "setting": "P388", "result": "> 100", "unit": "µM"},
      {"measurement": "IC50", "setting": "HL-60", "result": "> 100", "unit": "µM"},
      {"measurement": "IC50", "setting": "A549", "result": "> 100", "unit": "µM"},
      {"measurement": "IC50", "setting": "Bel-7402", "result": "> 100", "unit": "µM"},
      {"measurement": "IC50", "setting": "[1]", "result": "> 500", "unit": "µM"}
    ]},
    {"smiles": "OC(Cn1cncn1)(Cn1cncn1)c1ccc(F)cc1F", "note": "[FLUCONAZOLE]", "values": [
      {"measurement": "MIC", "setting": "Candida albicans", "result": 5.1, "unit": "µM"}
    ]},
    {"smiles": "O=C1O[C@H]([C@@H](O)CO)C(O)=C1O", "note": "[ASCORBIC ACID]", "values": [
      {"measurement": "IC50", "setting": "[1]", "result": 22, "unit": "µM"}
    ]},
    {"smiles": "CCCCCCCCCCCCCC/C=C/[C@@H](O)C(=O)N[C@@H](CO[C@@H]1O[C@H](CO)[C@@H](O)[C@H](O)[C@H]1O)[C@H](O)/C=C/CC/C=C(\\C)CCCCCCCC", "note": "[ALTERNAROSIDE B]", "values": [
      {"measurement": "MIC", "setting": "Escherichia coli", "result": 135, "unit": "µM"},
      {"measurement": "MIC", "setting": "Bacillus subtilis", "result": 68, "unit": "µM"},
      {"measurement": "MIC", "setting": "Candida albicans", "result": 270, "unit": "µM"},
      {"measurement": "IC50", "setting": "P388", "result": "> 100", "unit": "µM"},
      {"measurement": "IC50", "setting": "HL-60", "result": "> 100", "unit": "µM"},
      {"measurement": "IC50", "setting": "A549", "result": "> 100", "unit": "µM"},
      {"measurement": "IC50", "setting": "Bel-7402", "result": "> 100", "unit": "µM"},
      {"measurement": "IC50", "setting": "[1]", "result": "> 500", "unit": "µM"}
    ]},
    {"smiles": "CCCCCCCCC/C=C\\CC/C=C/[C@@H](O)[C@H](CO[C@@H]1O[C@H](CO)[C@@H](O)[C@H](O)[C@H]1O)NC(=O)[C@H](O)/C=C/CCCCCCCCCCCCCC", "note": "[ALTERNAROSIDE C]", "values": [
      {"measurement": "MIC", "setting": "Escherichia coli", "result": 135, "unit": "µM"},
      {"measurement": "MIC", "setting": "Bacillus subtilis", "result": 135, "unit": "µM"},
      {"measurement": "MIC", "setting": "Candida albicans", "result": 270, "unit": "µM"},
      {"measurement": "IC50", "setting": "P388", "result": "> 100", "unit": "µM"},
      {"measurement": "IC50", "setting": "HL-60", "result": "> 100", "unit": "µM"},
      {"measurement": "IC50", "setting": "A549", "result": "> 100", "unit": "µM"},
      {"measurement": "IC50", "setting": "Bel-7402", "result": "> 100", "unit": "µM"},
      {"measurement": "IC50", "setting": "[1]", "result": "> 500", "unit": "µM"}
    ]},
    {"smiles": "COc1cc([C@@H]2c3cc4c(cc3[C@@H](O[C@@H]3O[C@@H]5CO[C@@H](C)O[C@H]5[C@H](O)[C@H]3O)[C@H]3COC(=O)[C@H]23)OCO4)cc(OC)c1O", "note": "[ETOPOSIDE]", "values": [
      {"measurement": "IC50", "setting": "P388", "result": 0.05, "unit": "µM"},
      {"measurement": "IC50", "setting": "HL-60", "result": 0.042, "unit": "µM"},
      {"measurement": "IC50", "setting": "A549", "result": 0.63, "unit": "µM"},
      {"measurement": "IC50", "setting": "Bel-7402", "result": 1.03, "unit": "µM"}
    ]},
    {"smiles": "O=C(O)c1cn(C2CC2)c2cc(N3CCNCC3)c(F)cc2c1=O", "note": "[CIPROFLOXACIN LACTATE]", "values": [
      {"measurement": "MIC", "setting": "Bacillus subtilis", "result": 7.42, "unit": "µM"}
    ]}
  ]
}
